In patent US11856974B2, “Highly soluble stevia sweetener” (PureCircle Sdn Bhd, priority 2011, dated 2024):
Read-outs that look alike come from different tables or passages of the source.

Experiments:
[1] = background description of Rebaudioside A forms, % = grams soluble in 100 grams of solvent, cited from earlier work
[2] = cited from earlier work
[3] = Solubility in RO water at room temperature; assay type: physicochemical; conditions: % = grams soluble in 100 grams of solvent
Protocol: Hereinafter, unless specified otherwise, the solubility of material is determined in RO (reverse osmosis) water at room temperature.

[4] = Solubility comparison of spray dried amorphous powder samples; assay type: physicochemical; conditions: room temperature
Protocol: Hereinafter, unless specified otherwise, the solubility of material is determined in RO (reverse osmosis) water at room temperature. Where the solubility is expressed as “%” it to be understood as number of grams of material soluble in 100 grams of solvent.

| SMILES | Observation (solubility) ([4]; at 5% in water) | Observation (solubility) ([4]; at 10% in water) | Observation (solubility) ([4]; at 20% in water) | Observation (solubility) ([4]; at 30% in water) | Rate of dissolution in H2O at 25° C. ([2]; grade in words) | other results |
| --- | --- | --- | --- | --- | --- | --- |
| C=C1C[C@@]23CC[C@H]4[C@@](C)(CCC[C@@]4(C)C(=O)O[C@@H]4O[C@H](CO)[C@@H](O)[C@H](O)[C@H]4O)[C@@H]2CC[C@]1(O[C@@H]1O[C@H](CO)[C@@H](O)[C@H](O[C@@H]2O[C@H](CO)[C@@H](O)[C@H](O)[C@H]2O)[C@H]1O[C@@H]1O[C@H](CO)[C@@H](O)[C@H](O)[C@H]1O)C3 [Form 1, Rebaudioside A] |  |  |  |  | Very low | solubility ([1]; listed as hydrate form): less than 0.2%; Rate of dissolution in H2O at 25° C. ([2]; in 60 minutes): (<0.2% in 60 |
| C=C1C[C@@]23CC[C@H]4[C@@](C)(CCC[C@@]4(C)C(=O)O[C@@H]4O[C@H](CO)[C@@H](O)[C@H](O)[C@H]4O)[C@@H]2CC[C@]1(O[C@@H]1O[C@H](CO)[C@@H](O)[C@H](O[C@@H]2O[C@H](CO)[C@@H](O)[C@H](O)[C@H]2O)[C@H]1O[C@@H]1O[C@H](CO)[C@@H](O)[C@H](O)[C@H]1O)C3 [highly soluble amorphous form of rebaudioside A] |  |  |  |  |  | solubility in water [3]: greater than 30% |
| C=C1C[C@@]23CC[C@H]4[C@@](C)(CCC[C@@]4(C)C(=O)O[C@@H]4O[C@H](CO)[C@@H](O)[C@H](O)[C@H]4O)[C@@H]2CC[C@]1(O[C@@H]1O[C@H](CO)[C@@H](O)[C@H](O[C@@H]2O[C@H](CO)[C@@H](O)[C@H](O)[C@H]2O)[C@H]1O[C@@H]1O[C@H](CO)[C@@H](O)[C@H](O)[C@H]1O)C3 [Form 3, Rebaudioside A] |  |  |  |  | High | Rate of dissolution in H2O at 25° C. ([2]; in 5 minutes): > 30% |
| C=C1C[C@@]23CC[C@H]4[C@@](C)(CCC[C@@]4(C)C(=O)O[C@@H]4O[C@H](CO)[C@@H](O)[C@H](O)[C@H]4O)[C@@H]2CC[C@]1(O[C@@H]1O[C@H](CO)[C@@H](O)[C@H](O[C@@H]2O[C@H](CO)[C@@H](O)[C@H](O)[C@H]2O)[C@H]1O[C@@H]1O[C@H](CO)[C@@H](O)[C@H](O)[C@H]1O)C3 [Crystalline Rebaudioside A, Rebaudioside A] |  |  |  |  |  | solubility [1]: 1%-2% |
| C=C1C[C@@]23CC[C@H]4[C@@](C)(CCC[C@@]4(C)C(=O)O[C@@H]4O[C@H](CO)[C@@H](O)[C@H](O)[C@H]4O)[C@@H]2CC[C@]1(O[C@@H]1O[C@H](CO)[C@@H](O)[C@H](O[C@@H]2O[C@H](CO)[C@@H](O)[C@H](O)[C@H]2O)[C@H]1O[C@@H]1O[C@H](CO)[C@@H](O)[C@H](O)[C@H]1O)C3 [rebaudioside A] |  |  |  |  |  | solubility in water [3]: 0.6% |
| C=C1C[C@@]23CC[C@H]4[C@@](C)(CCC[C@@]4(C)C(=O)O[C@@H]4O[C@H](CO)[C@@H](O)[C@H](O)[C@H]4O)[C@@H]2CC[C@]1(O[C@@H]1O[C@H](CO)[C@@H](O)[C@H](O[C@@H]2O[C@H](CO)[C@@H](O)[C@H](O)[C@H]2O)[C@H]1O[C@@H]1O[C@H](CO)[C@@H](O)[C@H](O)[C@H]1O)C3 [Form 4, Rebaudioside A] |  |  |  |  | High | Rate of dissolution in H2O at 25° C. ([2]; in 5 minutes): > 35% |
| C=C1C[C@@]23CC[C@H]4[C@@](C)(CCC[C@@]4(C)C(=O)O[C@@H]4O[C@H](CO)[C@@H](O)[C@H](O)[C@H]4O)[C@@H]2CC[C@]1(O[C@@H]1O[C@H](CO)[C@@H](O)[C@H](O[C@@H]2O[C@H](CO)[C@@H](O)[C@H](O)[C@H]2O)[C@H]1O[C@@H]1O[C@H](CO)[C@@H](O)[C@H](O)[C@H]1O)C3 [Form 2, Rebaudioside A] |  |  |  |  | Intermediate | solubility ([1]; listed as anhydrous form): up to 30% |

The next lines start with results.

| Observation (solubility) ([4]; at 5% in water) | Observation (solubility) ([4]; at 10% in water) | Observation (solubility) ([4]; at 20% in water) | Observation (solubility) ([4]; at 30% in water) | SMILES | Rate of dissolution in H2O at 25° C. ([2]; grade in words) | other results |
| --- | --- | --- | --- | --- | --- | --- |
| Clear solution | Clear solution | Clear solution | Clear solution | C=C1C[C@@]23CC[C@H]4[C@@](C)(CCC[C@@]4(C)C(=O)O[C@@H]4O[C@H](CO)[C@@H](O)[C@H](O)[C@H]4O)[C@@H]2CC[C@]1(O[C@@H]1O[C@H](CO)[C@@H](O)[C@H](O[C@@H]2O[C@H](CO)[C@@H](O)[C@H](O)[C@H]2O)[C@H]1O[C@@H]1O[C@H](CO)[C@@H](O)[C@H](O)[C@H]1O)C3 [Sample #3, Rebaudioside A] |  | Observation (solubility) ([4]; at 40% in water): Slightly cloudy |
| Clear solution | Slightly cloudy | Cloudy solution | Undissolved matter | C=C1C[C@@]23CC[C@H]4[C@@](C)(CCC[C@@]4(C)C(=O)O[C@@H]4O[C@H](CO)[C@@H](O)[C@H](O)[C@H]4O)[C@@H]2CC[C@]1(O[C@@H]1O[C@H](CO)[C@@H](O)[C@H](O[C@@H]2O[C@H](CO)[C@@H](O)[C@H](O)[C@H]2O)[C@H]1O[C@@H]1O[C@H](CO)[C@@H](O)[C@H](O)[C@H]1O)C3 [Sample #1, Rebaudioside A] |  |  |
| Clear solution | Clear solution | Slightly cloudy | Cloudy solution | C=C1C[C@@]23CC[C@H]4[C@@](C)(CCC[C@@]4(C)C(=O)O[C@@H]4O[C@H](CO)[C@@H](O)[C@H](O)[C@H]4O)[C@@H]2CC[C@]1(O[C@@H]1O[C@H](CO)[C@@H](O)[C@H](O[C@@H]2O[C@H](CO)[C@@H](O)[C@H](O)[C@H]2O)[C@H]1O[C@@H]1O[C@H](CO)[C@@H](O)[C@H](O)[C@H]1O)C3 [Sample #2, Rebaudioside A] |  |  |
